What was measured:
[1] = in vitro; conditions: human
[2] = test system: CLL cells; experiment: MTT cytotoxicity assay, CLL cells; assay type: cell-based; conditions: Homo sapiens, CLL cell, 72 hours, duplicate
Experimental: The compounds of the invention were screened for CLL apoptotic activity by flow cytometry and a MTT-based assay. […] Primary PBL cells were acquired from the San Diego Blood Bank, San Diego, Calif. DiOC6 and PI dyes were obtained from Molecular Probes, Eugene, Oreg. Otherwise, unless indicated, all other reagents were purchased from Sigma (St. Louis, Mo.), and all test compounds were dissolved in sterile DMSO.
To get a more concise measure of the EC50 and confirm the flow cytometry results, a MTT (3-(4,5-dimethylthiazol-2-yl)-2,5-diphenyl tertrazolium bromide) assay using a procedure similar to that described by Mosmann, T., J Immunol Methods. 1983, 65, 55-63, was performed on all analogs. This method provided a larger number of datapoints so that a value for the EC50 could be extrapolated.
This assay was based on a procedure described by Mosmann. Briefly, in each well of a 96-well plate, 5×10^5 CLL cells were suspended in 100 μL of […] medium containing 10% FBS, 100 μg/mL penicillin, and 100 μg/mL streptomycin. Serial dilution of test compounds were then performed in duplicate across the plate to establish a concentration gradient from 0 to 1000 μM. After 72 hours of incubation at 37° C., the cells were incubated for 6 more hours in the presence of 20 μL of 5 mg/mL MTT (3-(4,5-dimethylthiazol-2-yl)-2,5-diphenyl tertrazolium bromide) before dissolving the resulting crystals in 50 μL lysis buffer (15% SDS, 15 mM HCl) overnight. Afterwards, the absorbance of each well was measured at […] in a Finstrument Microplate Reader, and the data was analyzed by Graphpad Prism Software, version 2.0b.

[3] = molecular target: T1, COX-1 isolated from human platelets (Homo sapiens, UniProt P23219); experiment: COX-1 enzyme assay (PGE2 enzyme immunoassay); assay type: biochemical; conditions: duplicate
T1 construct: COX-1 isolated from human platelets; tissue MDS Pharma Services; host or cells: human platelets
Experimental: (§1) Compounds active in both the flow cytometry and MTT experiments were then tested for COX inhibition at 50 μM in an enzyme assay using COX-1 isolated from human platelets and human recombinant COX-2 purified from insect cells (Spodoptera frugiperda), as described by Riendeau et. al., Br J Pharmacol. 1997, 121, 105-117; Riendeau et. al., Can J Physiol Pharmacol. 1997, 75, 1088-1095; and Warner et. al. Proc Natl Acad Sci. 1999, 96, 7563-7568. These assays were performed by MDS Pharma Services, Bothell, Wash. The compounds were incubated in duplicate with COX-1 isolated from human platelets and human recombinant COX-2 purified from insect cells (Spodoptera frugiperda). Enzyme immunoassay quantification of prostaglandin E2 production from arachidonic acid in the presence (50 μM) and absence of test compounds was used to determine the percentage of COX inhibition.

[4] = molecular target: T2, human recombinant COX-2 (Homo sapiens, UniProt P35354); experiment: COX-2 enzyme assay (PGE2 enzyme immunoassay); assay type: biochemical; conditions: duplicate
T2 construct: MDS Pharma Services (performed the assay); host or cells: Spodoptera frugiperda insect cells
Experimental: as §1

[5] = test system: HCT-116 (Colon); experiment: Cytotoxicity by MTT assay, HCT-116; assay type: cell-based; conditions: three days continuous exposure
[6] = test system: prostate cancer tissue; experiment: Prostatectomy tissue samples incubated 72 hours, histology; assay type: cell-based
Excerpt: The tissues were next fixed in 4% paraformaldehyde in PBS, embedded in paraffin, sectioned and stained with hematoxylin and eosin.

[7] = test system: Mcl-1; experiment: Mcl-1 level in LNCaP cells, SDS-PAGE immunoblot; assay type: cell-based
[8] = test system: OVCAR-3 (Ovarian); experiment: Cytotoxicity by MTT assay, OVCAR-3; assay type: cell-based; conditions: three days continuous exposure
[9] = test system: MDA-MB-231 (Breast); experiment: Cytotoxicity by MTT assay, MDA-MB-231; assay type: cell-based; conditions: three days continuous exposure
[10] = test system: PC-3 (Prostate); experiment: Cytotoxicity by MTT assay, PC-3; assay type: cell-based; conditions: three days continuous exposure
[11] = cited from earlier work
[12] = test system: adjuvant polyarthritis; conditions: reduction in paw volume, prostaglandin synthetase inhibitory activity; cited from earlier work
[13] = test system: CLL cells; experiment: Viability of CLL cells, erythrocin B exclusion assay; conditions: RPMI 1640 with 10% autologous plasma; FIG. 5
[14] = test system: Alva-31 (Prostate); experiment: Cytotoxicity by MTT assay, Alva-31; assay type: cell-based; conditions: three days continuous exposure
[15] = test system: A549 (Lung); experiment: Cytotoxicity by MTT assay, A549; assay type: cell-based; conditions: three days continuous exposure
[16] = test system: LNCaP-FGC (Prostate); experiment: Cytotoxicity by MTT assay, LNCaP-FGC; assay type: cell-based; conditions: three days continuous exposure
[17] = test system: normal bone marrow cells; experiment: Killing of normal bone marrow cells in patient bone marrow (propidium iodide / anti-CD38, FACS); assay type: cell-based, human; conditions: 72 hours, marrow of two patients; FIGS. 9-10
[18] = Plasma pharmacokinetics of etodolac enantiomers; assay type: in vivo; conditions: 1 gram dosage, human subject
[19] = test system: multiple myeloma cells; experiment: Killing of multiple myeloma cells in patient bone marrow (propidium iodide / anti-CD38, FACS); assay type: cell-based, human; conditions: 72 hours, marrow of two patients; FIGS. 9-10
[20] = test system: B-cell CLL cells; conditions: cited from earlier work
[21] = primary normal peripheral blood lymphocyte (PBL) cells
[22] = 200 mg dose, six elderly patients

T1 sequence (P23219 24-599): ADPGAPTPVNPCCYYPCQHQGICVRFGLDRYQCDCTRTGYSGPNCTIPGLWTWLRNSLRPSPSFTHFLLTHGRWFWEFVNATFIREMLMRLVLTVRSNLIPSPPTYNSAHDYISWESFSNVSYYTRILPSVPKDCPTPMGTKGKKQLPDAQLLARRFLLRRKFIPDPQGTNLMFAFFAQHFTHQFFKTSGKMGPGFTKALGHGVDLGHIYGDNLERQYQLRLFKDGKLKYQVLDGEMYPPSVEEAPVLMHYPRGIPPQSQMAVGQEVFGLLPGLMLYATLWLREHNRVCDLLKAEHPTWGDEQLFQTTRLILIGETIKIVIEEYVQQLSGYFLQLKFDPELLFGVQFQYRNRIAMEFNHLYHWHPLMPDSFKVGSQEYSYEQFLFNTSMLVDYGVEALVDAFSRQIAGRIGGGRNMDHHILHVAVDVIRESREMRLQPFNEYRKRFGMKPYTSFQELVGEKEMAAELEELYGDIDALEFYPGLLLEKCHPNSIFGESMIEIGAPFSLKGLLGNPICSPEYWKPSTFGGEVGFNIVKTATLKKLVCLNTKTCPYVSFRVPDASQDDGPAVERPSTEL
T2 sequence (P35354 18-604): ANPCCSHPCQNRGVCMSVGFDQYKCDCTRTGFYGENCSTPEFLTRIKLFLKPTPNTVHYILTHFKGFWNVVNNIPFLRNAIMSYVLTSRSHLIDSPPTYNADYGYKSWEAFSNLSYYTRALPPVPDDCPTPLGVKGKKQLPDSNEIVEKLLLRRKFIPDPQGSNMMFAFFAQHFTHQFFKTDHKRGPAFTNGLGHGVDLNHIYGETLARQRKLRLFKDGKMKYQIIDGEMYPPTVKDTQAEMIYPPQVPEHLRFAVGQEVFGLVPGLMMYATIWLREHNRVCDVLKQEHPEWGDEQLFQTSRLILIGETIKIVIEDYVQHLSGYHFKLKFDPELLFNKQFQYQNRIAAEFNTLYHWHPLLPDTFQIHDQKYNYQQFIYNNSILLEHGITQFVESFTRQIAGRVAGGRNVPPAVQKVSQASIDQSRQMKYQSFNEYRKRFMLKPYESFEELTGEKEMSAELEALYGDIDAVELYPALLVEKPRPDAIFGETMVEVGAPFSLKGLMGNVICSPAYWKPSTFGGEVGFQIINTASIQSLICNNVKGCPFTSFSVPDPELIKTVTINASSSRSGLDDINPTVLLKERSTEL

CCc1cccc2c3c([nH]c12)C(CC)(CCF)OCC3 (stereo not drawn) [Compound 3, 1,8-Diethyl-1-(2-fluoroethyl)-1,3,4,9-tetrahydropyrano[3,4-b]indole]
CC50 at 48 h [1, 21]: < 100 µM | EC50 [2]: 767 µM

CCc1cccc2c3c([nH]c12)C(CC)(CC(N)=O)OCC3 (stereo not drawn) [Compound 6, 2-(1,8-Diethyl-1,3,4,9-tetrahydropyrano[3,4-b]indol-1-yl)-acetamide]
inhibition at 50 µM [3]: 36% | CC50 at 48 h [1, 21]: > 500 µM | inhibition at 50 µM [4]: 69% | EC50 [2]: 258 µM

CCc1cccc2c3c([nH]c12)C(CC)(CC=N)OCC3 (stereo not drawn) [Compound 7, 2-(1,8-Diethyl-1,3,4,9-tetrahydropyrano[3,4-b]indol-yl)-ethylideneamine]
CC50 at 48 h [1, 21]: 250 to 500 µM | EC50 [2]: 714 µM

CCc1cccc2c3c([nH]c12)[C@](CC)(CC(=O)O)OCC3 [S-etodolac]
IC50 [5]: 420 ± 50 µM | activity in prostatectomy samples [6]: active | Mcl-1 degradation by the enantiomers [7]: induced Mcl-1 degradation at equivalent concentrations | IC50 [8]: > 1 mM | IC50 [9]: > 1 mM | IC50 [10]: 800 µM | maximum concentration relative to the R-enantiomer [11, 22]: 5 fold lower | anti-inflammatory activity [12]: almost all of the anti-inflammatory activity of the racemate | toxicity of the enantiomers to CLL cells [13]: equivalently cytotoxic | IC50 [14]: > 1 mM | IC50 [15]: > 1 mM | IC50 [16]: 220 ± 20 µM

CCc1cccc2c3c([nH]c12)[C@@](CC)(CC(=O)O)OCC3 [R-etodolac]
IC50 ([5]; Homo sapiens, 72 h): 280 ± 20 µM | activity in prostatectomy samples [6]: active | Mcl-1 degradation by the enantiomers [7]: induced Mcl-1 degradation at equivalent concentrations | killing of normal bone marrow cells [17]: did not kill | IC50 ([8]; Homo sapiens, 72 h): > 1 mM | IC50 ([9]; Homo sapiens, 72 h): > 1 mM | IC50 ([10]; 72 h): 150 ± 15 µM | maximum plasma concentration [11, 22]: about 33 μM | plasma concentrations of the R-enantiomer relative to the S-enantiomer ([11]; after administration of RS-etodolac): about 10 fold higher | CC50 at 48 h [1]: ~500 µM | anti-inflammatory activity [12]: No anti-inflammatory activity was discernible | toxicity of the enantiomers to CLL cells [13]: equivalently cytotoxic | IC50 ([14]; 72 h): > 1 mM | maximal plasma concentration that a dosage should yield [18]: about 400 μM | IC50 ([15]; Homo sapiens, 72 h): > 1 mM | EC50 [2]: 247 µM | IC50 ([16]; 72 h): 270 ± 50 µM | killing of multiple myeloma cells [19]: dose-dependently killed

CCc1cccc2c3c([nH]c12)C(CC)(CC=O)OCC3 (stereo not drawn) [Compound 8, (1,8-Diethyl-1,3,4,9-tetrahydropyrano[3,4-b]indol-1-yl)-acetaldehyde]
CC50 at 48 h [1, 21]: < 100 µM | EC50 [2]: 111 µM

CCc1cccc2c3c([nH]c12)C(CC)(CCOCSC)OCC3 (stereo not drawn) [Compound 9, 1,8-Diethyl-1-(2-methylsufanylmethoxyethyl)-1,3,4,9-tetrahydropyrano[3,4-b]indole]
EC50 [2]: 324 µM

CCc1cccc2c3c([nH]c12)C(CC)(CCO)OCC3 (stereo not drawn) [Compound 1, 2-(1,8-Diethyl-1,3,4,9-tetrahydropyrano[3,4-b]indol-1-yl)-ethanol]
inhibition at 50 µM [3]: 0% | CC50 at 48 h [1, 21]: ~500 µM | inhibition at 50 µM [4]: 0% | EC50 [2]: 178 µM

CCc1cccc2c3c([nH]c12)C(CC)(CC(C)O)OCC3 (stereo not drawn) [Compound 12, 1-(1,8-Diethyl-1,3,4,9-tetrahydropyrano[3,4-b]indol-1-yl)-propan-2-ol]
CC50 at 48 h [1, 21]: 250 to 500 µM | EC50 [2]: 272 µM

O=C(O)c1ccccc1O [salicylate]
viability of B-cell CLL cells in vitro [20]: reduced the viability
